Results on one compound are retold here after publication PMC10487316, “A high‐throughput microfluidic mechanoporation platform to enable intracellular delivery of cyclic peptides in cell‐based assays” (Bioengineering & Translational Medicine, 2023).

Each structure is given as a SMILES string. Where a SMILES comes first, the peptide text is derived from it. Bridges are numbered along the chain shown (N, C = ends). [ ]: non-standard residue; d: D form. dPhe(4-CF3) = N[C@H](Cc1ccc(C(F)(F)F)cc1)C(=O)O; dTrp(6-F) = N[C@H](Cc1c[nH]c2cc(F)ccc12)C(=O)O; R5 = C=CCCC[C@@](C)(N)C(=O)O; S5 = C=CCCC[C@](C)(N)C(=O)O

Assay [1] relates to CellSensor p53RE-bla HCT116 cell line (p53 response element reporter). The assay can be described thus: HCT116 p53 β-lactamase reporter gene functional assay. In kind it is cell-based, human. The note with it: 10 μM peptide; unprocessed vs DμVS-processed cells. How it is done:
The CellSensor™ p53RE‐bla HCT116 cell line (K1640, Thermo Scientific) was used for functional characterization of p53 pathway activation by DμVS‐delivered peptides. Assay was performed similarly to how previously described.[17] These cells harbor a stable integration of a β‐lactamase reporter gene under control of the p53 response element. Cells were maintained in McCoy's 5A medium (16600‐082, Invitrogen) with 10% dialyzed FBS (26400‐036, Invitrogen), blasticidin (R210‐01, Invitrogen), and penicillin/streptomycin according to the manufacturer's protocol. Peptides were synthesized as previously described.[16], [17] To set up the assay, peptides were first pre‐plated in assay medium (Opti‐MEM supplemented with 0.1 mM non‐essential amino acids [11140‐050, Invitrogen], 1 mM sodium pyruvate [11360‐070, Invitrogen], and penicillin/streptomycin) without FBS on 384‐well plates (Corning 3764) or 96‐well plates (Corning 3603) using a HP D300E digital dispenser (20 μl 384‐well, 50 μl 96‐well). Maximum DMSO concentration used was 0.3% v/v. Cells were washed, resuspended with 0.05% v/v trypsin, spun down for 5 min at 300× g, and resuspended in PBS. Cells were 70‐μm strained and then brought to a final cell density of 3 × 10^6 cells/ml in PBS. Cell suspension was connected to 15 mL P‐CAP of the DμVS system, and 2 mL were used to prime the system. DμVS process was then initiated at 120 psi and 20 μL (384‐well) or 50 μL (96‐well) were dispensed to microplate in wells that were pre‐defined in the Telios software and pre‐loaded with peptides 2× in assay medium. Unprocessed cells were added to the microplate in parallel. After DμVS processing/mixing with peptide, cells were incubated at 37°C for 4 h. β‐lactamase activity was detected using the ToxBLAzer loading kit (K1095, Invitrogen) according to the manufacturer's protocol. Plates were measured using the PHERAstar FSX microplate reader with a LiveBlazer optic module (1400‐G3M‐FI‐410‐530‐460, BMG Labtech). Maximum p53 activity was defined as the β‐lactamase activity induced by 30 μM MP‐081 (meanpos). Percent activation of individual samples (S) was calculated using the following equation, where meanveh represents the mean of vehicle controls: % activation=S−meanveh/meanpos−meanveh×100
Z‐factors were calculated using the formula: Z^′=1−3σpos+3σveh/meanpos−meanveh
Meanpos and σ pos represent the mean and standard deviation, respectively, of the raw ratiometric values for 30 μM MP‐081 and meanveh and σ veh represent the mean and standard deviation of the vehicle controls. Dose–response data EC50 values were determined using the “[Agonist] versus response—Variable slope (four parameters)” algorithm in GraphPad Prism. Single concentration data for expanded peptide set were analyzed using unpaired T‐tests with false discovery rate (FDR, 1.00%) multiple comparisons correction using the two‐stage step‐up (Benjamini, Krieger, and Yekutieli) method. Data were accumulated from at least five independent experimental runs.

For assay [2], the target named is T1, MDM2 (1–125) protein (Homo sapiens, UniProt Q00987).
T1 construct: made in house
T1 sequence (Q00987 1-125): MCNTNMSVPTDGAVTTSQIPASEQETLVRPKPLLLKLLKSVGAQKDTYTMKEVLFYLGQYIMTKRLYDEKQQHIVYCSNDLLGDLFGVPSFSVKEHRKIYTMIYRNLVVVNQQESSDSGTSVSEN
The experiment in a line: MDM2 binding assay (fluorescence anisotropy competition). The note with it: competition vs 50 nM FAM-labeled 12/1 peptide, 250 nM MDM2; heat map of Figure 5a. How it is done:
MDM2 protein generation and binding studies were performed as described.[17] […] The competing molecules were then titrated against the complex of the FAM‐labeled peptide and protein. Curve‐fitting was carried out using Prism 4.0 (GraphPad) to determine K D values. Readings were carried out with an Envision Multilabel Reader (PerkinElmer). […] All titrations were carried out in triplicate.

In the case of `CC(C)C[C@H]1NC(=O)[C@@H](CC(C)C)NC(=O)[C@@](C)(NC(=O)[C@@H](CCC(=O)O)NC(=O)[C@@H](Cc2ccc(C(F)(F)F)cc2)NC(=O)[C@@H](CC(N)=O)NC(=O)[C@@H](C)NC(=O)[C@@H](Cc2ccc(O)cc2)NC(=O)[C@@H](Cc2c[nH]c3cc(F)ccc23)NC(=O)[C@@H](C)NC(=O)[C@H](N)[C@H](C)O)CCCC=CCCC[C@](C)(C(N)=O)NC1=O` [MP-313, H-DThr-DAla-DTrp(6-F)-DTyr-DAla-DAsn-DPhe(4-CF3)-DGlu-S5*-DLeu-DLeu-R5*-NH2] (H-[dT][dA][dTrp(6-F)][dY][dA][dN][dPhe(4-CF3)][dE][S5][dL][dL][R5]-NH2; staple 9-12), the “p53 activation at 10 μM with and without DμVS” value in assay [1] is on record as “no p53 reporter activity improvement”. Also, the dissociation constant Kd in assay [2] amounted to 1.7 nM.
